# Laboratory results reported in patent publication US20200375965A1, “Targeting Lipid Metabolism and Free Fatty Acid (FFA) Oxidation to Treat Diseases Mediated by Resident Memory T Cells (TRM)” (The Brigham and Women's Hospital, Inc., priority 2018, published 2020).
# Legend:
# [1] = tested on: VACV; design: species or system mice; settings: mouse, in vivo
# [2] = tested on: WR-VACV; design: species or system mice; settings: mouse, in vivo
# [3] = tested on: TRM mediated contact hypersensitivity (CHS); experiment: DNFB contact hypersensitivity (CHS), ear thickness; assay type: in vivo, C57BL/6 mice; settings: etomoxir 1 ug/site, trimetazidine 10 ug/site at challenge with 0.25% DNFB
# Procedure: FIG. 15. […] Effect of FAO inhibition on contact hypersensitivity (CHS) reaction post DNFB re-exposure. DNFB: 20 ul, 0.25% in acetone:olive oil (aOO) (3:1 v/v); Etomoxir (1 ug/site); Trimetazidine (10 ug/site). N=10 mice per group.
# C57BL/6 mice were sensitized by topical applications of 20 μl of 0.25% DNFB diluted in acetone olive oil (3:1 v/v) at the indicated time points (day 0, 1 and 7). Challenge was performed at the infection site with 20 μl of DNFB-acetone olive oil (aOO) (0.25%), with or without etomoxir (1 ug/site) and trimetazidine (10 ug/site), at the indicated time points. Then the ear thickness of the mice was measured with a digital thickness gauge (Mitsutoyo) for the following days.
# [4] = tested on: OT-I TRM, TCM and Fabp4/5 dKO TRM; experiment: Seahorse Fatty Acid Oxidation (FAO) assay, oxygen-consumption rate; assay type: cell-based, mouse
# Procedure: Oxidation of exogenous free fatty acids (FFA) was measured using XF Palmitate-BSA FAO substrate with XF cell mito stress kit according to the manufacturer's protocol (Seahorse Bioscience). Freshly isolated and sorted T cells (2.5×10^5) were incubated for 30 min with FAO assay medium (111 mM NaCl, 4.7 mM KCl, 1.25 mM CaCl2), 2.0 mM MgSO4, 1.2 mM Na2HPO4, 2.5 mM glucose, 0.5 mM carnitine and 5 mM HEPES). When required, cells were pre-treated with etomoxir (40 μM) for 15 min. Afterwards, BSA (34 μM) or palmitate-BSA (200 μM palmitate conjugated with 34 μM BSA) was added to the medium, and the oxygen-consumption rate (OCR) was measured under basal conditions and in response to 1 uM oligomycin, 1.5 uM fluorocarbonyl cyanide phenylhydrazone (FCCP), and 100 nM rotenone+1 uM antimycin A. Results were normalized to those of control cells in the presence of BSA.
# [5] = tested on: OT-1 skin TRM; experiment: Bodipy FL C16 (Bodipy conjugated palmitate) uptake ex vivo, flow cytometry; assay type: cell-based, mouse; settings: pre-incubation with unlabeled palmitate (100 μM palmitic acid, 10 min, 37° C.); day 30 TRM
# Source text: The following anti-mouse antibodies were obtained from BD PharMingen: PerCP-conjugated anti-CD3e (553067), PE-conjugated anti-CD8 (557654), PE-Cy7-conjugated anti-CD8 (552877), APC-Cy7-conjugated anti-CD8 (557654), PE-conjugated anti-Thy1.1 (561404), APC-conjugated anti-Thy1.1 (557266), Alexa Fluor 488-conjugated anti-KLRG1 (561619), PE-conjugated anti-integrin α4β7 (553811), PE-Cy7-conjugated anti-CD62L (560516), APC-Cy7-conjugated CD62L (560514), APC-conjugated anti-IFN-γ (554413). Biolegend: Alexa Fluor 488-conjugated anti-CD3e (100321), Alexa Fluor 647-conjugated anti-CD4 (100424), Alexa Fluor 594-conjugated anti-Ep-CAM (118222), FITC-conjugated anti-CD45.1 (110706), PE-conjugated anti-CD45.1 (110708), PE-Cy7-conjugated anti-CD45.2 (109830), APC-conjugated anti-CD45.2 (109814), PE-conjugated anti-CD45.2 (109808), APC-conjugated anti-KLRG1 (138412), PE-conjugated anti-CD44 (103008), PE-Cy7-conjugated anti-CD44 (103030), PE-Cy7-conjugated anti-CD69 (104512), APC-conjugated anti-CD103 (121414), APC-conjugated anti-integrin α4β7 (120608). […] Apoptosis was measured with FITC Annexin V Apoptosis Detection Kit (640922; Biolegend) according to manufacturer's protocol. Flow cytometry data were acquired with a FACS Canto II flow cytometer (BD Biosciences) and data were analyzed with Flowjo software (Tree Star). […]
smiles,measurement,setting,value
CCCCCCCCc1ccc(CCC(N)(CO)CO)cc1 [FTY720],clearing of virus from skin by established OT-I WT TRM,"[1]; ip, 1 mg/kg",unaffected
same,reduced viral clearance by OT-I TRM lacking Fabp4 and Fabp5,"[1]; ip, 1 mg/kg",exaggerated
same,mortality,[2],100%
same,protection from lethality,[2],partially but significantly protected
"CCOC(=O)C1(CCCCCCOc2ccc(Cl)cc2)CO1 (stereo not shown) [etomoxir, 2-(6-(4-chlorophenoxy)-hexyl)-oxirane-2-carboxylic acid ethyl ester]",VACV clearing capacity of OT-I WT TRM,[1],reduced
same,contact hypersensitivity (CHS) reaction post DNFB re-exposure,[3],Block
same,enhanced basal and FCCP-stimulated maximal oxygen-consumption rate (OCR) induced by extracellular fatty acids,"[4]; OT-I TRM, pre-treatment with etomoxir 40 μM for 15 min",blocked
same,cellular respiration (OCR),"[4]; TCM or Fabp4/5 dKO TRM OT-I cells, addition of etomoxir",no effect
COc1ccc(CN2CCNCC2)c(OC)c1OC [trimetazidine],contact hypersensitivity (CHS) reaction post DNFB re-exposure,[3],Block
"CCCCCCCCCCCCCCCC(=O)O [unlabeled palmitate, palmitic acid]",uptake of extracellular Bodipy conjugated palmitate,[5],blocked
